Target: T1, KATP channels (Homo sapiens, UniProt O60706+Q14654)
T1 construct: TE671 human medulloblastoma cells were obtained from ATCC; host or cells: TE671 human medulloblastoma cells
Experiment: Potassium Channel Assay (FLIPR membrane potential, TE671 cells)
Format: cell-based
Conditions: TE671 human medulloblastoma cells, Membrane Potential Assay Dye, room temperature, hyperpolarization from KATP channel opening
Procedure: TE671 human medulloblastoma cells were obtained from ATCC and grown in Dulbecco's modified Eagle's medium (DMEM) supplemented with 10% fetal bovine serum, 100 U/ml penicillin and 100 U/ml streptomycine.
The day before testing, the cells were plated in black 96-well plates at 50K/well. On the day of testing, the growth media was removed, then 100 μl of FLIPR buffer (20 mM HEPES, 120 mM NaCl, 2 mM KCl, 2 mM CaCl2, 1 mM MgCl2, 5 mM Glucose) and 100 μl of Membrane Potential Assay Dye (Molecular Devices) dissolved in FLIPR buffer were added to each well. The cells were incubated at room temperature for 15 to 30 min.
The effect of test compounds on KATP channels were evaluated on a fluorometric imaging plate reader (FLIPR, Molecular Devices) at room temperature. After a baseline period, 50 μl of 5× stock solution of test compound prepared in FLIPR buffer was added and fluorescent change was monitored for 3 minutes. After this reading, glyburide, a KATP channel blocker, was added to a final concentration of 5 μM to check the specificity of the test compound as a KATP channel openers. Hyperpolarization resulting from KATP channel opening was observed as a decrease in fluorescent intensity.
Representative compounds of the present invention were tested according to the procedure described above, with results as listed in Table 7, below.

T1 sequence (O60706 1-1549 isoform O60706-2): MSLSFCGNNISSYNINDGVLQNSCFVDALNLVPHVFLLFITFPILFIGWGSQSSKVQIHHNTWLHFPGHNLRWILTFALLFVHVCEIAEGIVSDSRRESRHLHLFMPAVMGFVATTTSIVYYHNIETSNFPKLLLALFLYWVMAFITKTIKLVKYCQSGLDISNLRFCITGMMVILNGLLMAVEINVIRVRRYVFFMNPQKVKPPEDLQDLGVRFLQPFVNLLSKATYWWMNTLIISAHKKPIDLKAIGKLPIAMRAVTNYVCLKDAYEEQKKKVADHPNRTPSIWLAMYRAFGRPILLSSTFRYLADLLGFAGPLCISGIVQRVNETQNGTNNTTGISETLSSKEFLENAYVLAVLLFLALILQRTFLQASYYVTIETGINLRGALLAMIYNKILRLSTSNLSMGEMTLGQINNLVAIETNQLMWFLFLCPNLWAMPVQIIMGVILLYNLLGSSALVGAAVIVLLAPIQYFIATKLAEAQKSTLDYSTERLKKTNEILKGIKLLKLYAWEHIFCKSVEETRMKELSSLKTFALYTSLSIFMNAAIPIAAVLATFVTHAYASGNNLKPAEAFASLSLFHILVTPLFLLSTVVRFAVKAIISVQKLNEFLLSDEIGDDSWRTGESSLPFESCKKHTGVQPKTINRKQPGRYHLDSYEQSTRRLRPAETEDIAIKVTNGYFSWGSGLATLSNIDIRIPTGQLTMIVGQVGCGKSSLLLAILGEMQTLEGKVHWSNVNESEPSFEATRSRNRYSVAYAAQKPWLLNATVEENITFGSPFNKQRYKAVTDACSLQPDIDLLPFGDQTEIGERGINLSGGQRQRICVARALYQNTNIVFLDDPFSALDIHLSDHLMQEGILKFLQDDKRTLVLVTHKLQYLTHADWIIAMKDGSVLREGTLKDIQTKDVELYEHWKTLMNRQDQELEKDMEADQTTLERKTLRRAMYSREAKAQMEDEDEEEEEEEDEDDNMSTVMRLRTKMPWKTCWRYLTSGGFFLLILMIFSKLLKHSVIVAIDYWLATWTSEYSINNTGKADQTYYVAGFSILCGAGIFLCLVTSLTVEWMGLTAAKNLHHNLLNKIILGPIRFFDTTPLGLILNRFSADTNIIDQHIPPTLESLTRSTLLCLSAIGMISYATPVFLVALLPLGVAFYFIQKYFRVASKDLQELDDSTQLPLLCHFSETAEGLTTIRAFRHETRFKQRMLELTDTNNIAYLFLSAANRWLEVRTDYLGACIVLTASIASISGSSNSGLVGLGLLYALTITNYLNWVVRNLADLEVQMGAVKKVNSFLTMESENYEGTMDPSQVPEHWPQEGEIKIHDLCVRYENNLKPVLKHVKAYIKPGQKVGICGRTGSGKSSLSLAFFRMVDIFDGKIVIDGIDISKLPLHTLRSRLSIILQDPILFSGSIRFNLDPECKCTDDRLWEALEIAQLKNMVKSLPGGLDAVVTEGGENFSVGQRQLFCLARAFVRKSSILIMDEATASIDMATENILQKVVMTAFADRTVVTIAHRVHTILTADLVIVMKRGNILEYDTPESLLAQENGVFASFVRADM
T1 sequence (Q14654 whole entry): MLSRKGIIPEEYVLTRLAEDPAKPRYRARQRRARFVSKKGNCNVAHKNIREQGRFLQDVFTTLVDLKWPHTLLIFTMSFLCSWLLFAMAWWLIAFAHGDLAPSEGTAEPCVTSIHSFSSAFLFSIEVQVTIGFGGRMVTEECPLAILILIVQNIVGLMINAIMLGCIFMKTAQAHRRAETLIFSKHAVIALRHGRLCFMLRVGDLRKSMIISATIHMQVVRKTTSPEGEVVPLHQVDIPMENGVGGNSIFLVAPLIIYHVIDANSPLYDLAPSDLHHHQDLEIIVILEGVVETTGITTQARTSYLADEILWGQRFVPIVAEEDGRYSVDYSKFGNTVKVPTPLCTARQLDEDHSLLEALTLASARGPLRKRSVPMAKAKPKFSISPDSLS

Structure (SMILES) | EC50
CC1(C)Oc2ccc(C#N)cc2[C@@H](NP(C)(=O)c2ccccc2)[C@@H]1O (stereo partly drawn) [Compound 28] | 18.6 µM
CC1(C)Oc2ccc(C#N)cc2[C@@H](n2sc3ccccc3c2=O)[C@@H]1O [Compound 30] | 14.1 µM
Cc1cccc2c(=O)n([C@@H]3c4cc(C#N)ccc4OC(C)(C)[C@H]3O)oc12 [Compound 32, 3S-Hydroxy-2,2-dimethyl-4R-(7-methyl-3-oxo-3H-benzo[d]isoxazol-2-yl)-chroman-6-carbonitrile] | 22.6 µM
CC1(C)Oc2ccc(C#N)cc2[C@@H](n2nc(N)c3cc(Cl)ccc32)[C@@H]1O [Compound 33, 4R-(3-Amino-5-chloro-indazol-1-yl)-3S-hydroxy-2,2-dimethyl-chroman-6-carbonitrile] | 6.85 µM
CC1(C)Oc2ccc(C#N)cc2[C@@H](N2CC3(CCCCC3)CC2=O)[C@@H]1O [Compound 34, 3S-Hydroxy-2,2-dimethyl-4R-(3-oxo-2-aza-spiro[4.5]dec-2-yl)-chroman-6-carbonitrile] | 21.4 µM
CC1(C)Oc2ccc(C#N)cc2[C@@H](n2nc(N)c3ccc(Br)cc32)[C@@H]1O [Compound 35, 4R-(3-Amino-6-bromo-indazol-1-yl)-3S-hydroxy-2,2-dimethyl-chroman-6-carbonitrile] | 4.4 µM
CC1(C)Oc2ccc(C#N)cc2[C@@H](n2nc(N)c3c(F)cccc32)[C@@H]1O [Compound 36, 4R-(3-Amino-4-fluoro-indazol-1-yl)-3S-hydroxy-2,2-dimethyl-chroman-6-carbonitrile] | 16.2 µM
CC1(C)Oc2ccc(C#N)cc2[C@@H](n2nc(N)c3ccccc32)[C@@H]1O [Compound 37, 4R-(3-Amino-indazol-1-yl)-3S-hydroxy-2,2-dimethyl-chroman-6-carbonitrile] | 20 µM
CC1(C)Oc2ccc(C#N)cc2[C@@H](Oc2noc3ccc(Cl)cc23)[C@@H]1O [Compound 38, (3S,4R)-4-(5-Chloro-benzo[d]isoxazol-3-yloxy)-3-hydroxy-2,2-dimethyl-chroman-6-carbonitrile] | 7.07 µM
CC1(C)Oc2ccc(C#N)cc2[C@@H](Nc2noc3ccc(Cl)cc23)[C@@H]1O [Compound 39, (3S,4R)-4-(5-Chloro-benzo[d]isoxazol-3-ylamino)-3-hydroxy-2,2-dimethyl-chroman-6-carbonitrile] | 0.61 µM
CC1(C)Oc2ccc(C#N)cc2[C@@H](Oc2ncnc3ccccc23)[C@@H]1O [Compound 40, (3S,4R)-3-Hydroxy-2,2-dimethyl-4-(quinazolin-4-yloxy)-chroman-6-carbonitrile] | 1.94 µM
CC1(C)Oc2ccc(C#N)cc2[C@@H](Oc2nsc3cc([N+](=O)[O-])ccc23)[C@@H]1O [Compound 41, 3S-Hydroxy-2,2-dimethyl-4R-(6-nitro-benzo[d]isothiazol-3-yloxy)-chroman-6-carbonitrile] | 4.1 µM
CC1(C)Oc2ccc(C#N)cc2[C@@H](SC2=NCCc3ccccc32)[C@@H]1O [Compound 42, 4R-(3,4-Dihydro-isoquinolin-1-ylsulfanyl)-3S-hydroxy-2,2-dimethyl-chroman-6-carbonitrile] | > 30 µM
CC1(C)Oc2ccc(C#N)cc2[C@@H](Sc2nccc(C(F)(F)F)n2)[C@@H]1O [Compound 43, 3S-Hydroxy-2,2-dimethyl-4R-(4-trifluoromethyl-pyrimidin-2-ylsulfanyl)-chroman-6-carbonitrile] | > 30 µM
COc1ccc2onc(O[C@@H]3c4cc(C#N)ccc4OC(C)(C)[C@H]3O)c2c1 [Compound 44, (3S,4R)-3-Hydroxy-4-(5-methoxy-benzo[d]isoxazol-3-yloxy)-2,2-dimethyl-chroman-6-carbonitrile] | 12.3 µM
CC1(C)C=C(n2c(N)nc3cc(Cl)ccc32)c2cc(C#N)ccc2O1 [Compound 45, 4-(2-Amino-5-chloro-benzoimidazol-1-yl)-2,2-dimethyl-2H-chromene-6-carbonitrile] | > 30 µM
CC1(C)C=C(Nc2nc(=O)c3ccccc3[nH]2)c2cc(C#N)ccc2O1 [Compound 46, 2,2-Dimethyl-4-(4-oxo-1,4-dihydro-quinazolin-2-ylamino)-2H-chromene-6-carbonitrile] | 28.3 µM
CC1(C)C=C(Oc2ccc(-c3ccccc3)nn2)c2cc(C#N)ccc2O1 [Compound 53, 2,2-Dimethyl-4-(6-phenyl-pyridazin-3-yloxy)-2H-chromene-6-carbonitrile] | 9.91 µM
CC1(C)C=C(n2ccnc2-c2ccc(Cl)cc2)c2cc(C#N)ccc2O1 [Compound 54, 4-[2-(4-Chloro-phenyl)-imidazol-1-yl]-2,2-dimethyl-2H-chromene-6-carbonitrile] | 1.84 µM
CC1(C)C=C(n2nc(-c3ccc(Cl)cc3)ccc2=O)c2cc(C#N)ccc2O1 [Compound 57, 4-[3-(4-Chloro-phenyl)-6-oxo-6H-pyridazin-1-yl]-2,2-dimethyl-2H-chromene-6-carbonitrile] | 19.9 µM
CC1(C)C=C(n2ccnc2-c2ccccc2)c2cc(C#N)ccc2O1 [Compound 61, 2,2-Dimethyl-4-(2-phenyl-imidazol-1-yl)-2H-chromene-6-carbonitrile] | > 30 µM
CC1(C)C=C(n2cncc2-c2ccc(Cl)cc2)c2cc(C#N)ccc2O1 [Compound 63, 4-[5-(4-Chloro-phenyl)-imidazol-1-yl]-2,2-dimethyl-2H-chromene-6-carbonitrile] | 7.9 µM
CC1(C)Oc2ccc(C#N)cc2[C@@H](Nc2nc(=O)c3cc(Cl)ccc3[nH]2)[C@@H]1O [Compound 64, (3S,4R)-4-(6-Chloro-4-oxo-1,4-dihydro-quinazolin-2-ylamino)-3-hydroxy-2,2-dimethyl-chroman-6-carbonitrile] | 9.12 µM
CC1(C)Oc2ccc(C#N)cc2[C@@H](NP(=O)(c2ccccc2)c2ccccc2)[C@@H]1O [Compound 65] | > 30 µM
CC1(C)Oc2ccc(C#N)cc2[C@@H](NS(=O)(=O)c2cccc(Cl)c2)[C@@H]1O [Compound 66, (3S,4R)-3-Chloro-N-(6-cyano-3-hydroxy-2,2-dimethyl-chroman-4-yl)-benzenesulfonamide] | 1.54 µM
CC1(C)Oc2ccc(C#N)cc2[C@@H](Nc2noc3cc(Cl)ccc23)[C@@H]1O [Compound 67, (3S,4R)-4-(6-Chloro-benzo[d]isoxazol-3-ylamino)-3-hydroxy-2,2-dimethyl-chroman-6-carbonitrile] | 6.18 µM
CC1(C)C=C(Oc2nsc3cc([N+](=O)[O-])ccc23)c2cc(C#N)ccc2O1 [Compound 69, (3S,4R)-2,2-Dimethyl-R-(6-nitro-benzo[d]isothiazol-3-yloxy)-2H-chromene-6-carbonitrile] | > 30 µM
CC1(C)Oc2ccc(C#N)cc2[C@@H](Oc2noc3ccc(F)cc23)[C@@H]1O [Compound 70, (3S,4R)-4-(5-Fluoro-benzo[d]isoxazol-3-yloxy)-3-hydroxy-2,2-dimethyl-chroman-6-carbonitrile] | 19.3 µM
CC1(C)Oc2ccc(C#N)cc2[C@@H](S(=O)(=O)c2nc3cc(Cl)c(F)cc3[nH]2)[C@@H]1O [Compound 72, 4R-(5-Chloro-6-fluoro-1H-benzoimidazole-2-sulfonyl)-3S-hydroxy-2,2-dimethyl-chroman-6-carbonitrile] | 20.2 µM
CC1(C)Oc2ccc(S(=O)(=O)c3ccccc3)cc2[C@@H](Nc2noc3cc(Cl)ccc23)[C@@H]1O [Compound 73, (3S,4R)-6-Benzenesulfonyl-4R-(6-chloro-benzo[d]isoxazol-3-ylamino)-2,2-dimethyl-chroman-3S-ol] | 5.19 µM

Reference: patent US7812183B2, “Benzopyran derivatives as potassium channel openers” (Janssen Pharmaceutica NV, priority 2005, dated 2010)
